Assay results as given in BindingDB's records for doi:10.1016/j.bioorg.2015.01.005 (Kurukshetra University, 2015).

What was measured:
[1] = target: T1, Cathepsin H (Capra hircus, UniProt A0A060INS8); assay: Cathepsin Ezyme Assay; details: pH 6
T1 sequence (A0A060INS8 whole entry): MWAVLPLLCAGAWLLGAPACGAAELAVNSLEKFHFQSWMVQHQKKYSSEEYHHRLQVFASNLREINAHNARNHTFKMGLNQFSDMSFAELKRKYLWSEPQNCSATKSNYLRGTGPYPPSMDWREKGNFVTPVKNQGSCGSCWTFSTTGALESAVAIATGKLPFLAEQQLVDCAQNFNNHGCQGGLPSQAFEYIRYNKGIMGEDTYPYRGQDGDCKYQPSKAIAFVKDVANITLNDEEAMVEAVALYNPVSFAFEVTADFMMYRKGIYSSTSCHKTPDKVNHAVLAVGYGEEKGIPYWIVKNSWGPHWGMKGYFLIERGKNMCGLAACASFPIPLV
Protocol: (§1) Cathepsin B and H were first activated in the presence of thiol activators at pH 6.0 and pH 7.0, respectively. Then, 15 µL of the enzyme solution was mixed with 940 µL of 0.1 M sodium phosphate buffer containing 1 mM EDTA separately, for 10 min at 37 °C. […] After 30 min, 25 µL of 100 mM substance stock solution was added to start the reaction.

[2] = target: Cathepsin B (Capra hircus, UniProt H9B8T9); assay: Cathepsin Ezyme Assay; details: pH 6
Protocol: as §1

Row | Ki [1] | Ki [2] | Compound
1 | 8.18 µM | 0.0064 µM | O=C1NC(c2ccc(F)cc2)Nc2ccccc21 (centres undefined) [2-(4-Fluorophenyl)-2,3-dihydroquinazolin-4(1H)-one (1f)]
2 | 10.4 µM | 1.57 µM | O=C1NC(c2ccc([N+](=O)[O-])cc2)Nc2ccccc21 (centres undefined) [2-(4-Nitrophenyl)-2,3-dihydroquinazolin-4(1H)-one (1b)]
3 | 52.6 µM | 32.5 µM | O=C1NC(c2ccc(Br)cc2)Nc2ccccc21 (centres undefined)
4 | 2.5 µM | 52.6 µM | Cc1ccc(C2NC(=O)c3ccccc3N2)cc1 (centres undefined) [2-(4-Methylphenyl)-2,3-dihydroquinazolin-4(1H)-one (1c)]
5 | 23.3 µM | 0.041 µM | O=C1NC(c2ccc(Cl)cc2)Nc2ccccc21 (centres undefined) [2-(4-Chlorophenyl)-2,3-dihydroquinazolin-4(1H)-one (1e)]
6 | 18.6 µM | 10.6 µM | CN(C)c1ccc(C2NC(=O)c3ccccc3N2)cc1 (centres undefined) [2-(4-(Dimethylamino)phenyl)-2,3-dihydroquinazolin-4(1H)-one (1h)]

Row | Compound | Ki [1] | Ki [2]
7 | COc1ccc(C2NC(=O)c3ccccc3N2)cc1 (centres undefined) [2-(4-Methoxyphenyl)-2,3-dihydroquinazolin-4(1H)-one (1d)] | 56.8 µM | 2.81 µM
